Measurements taken from patent US8822699B2, “Heterocyclic compound and use thereof” (Takeda Pharmaceutical Company Limited, priority 2010, dated 2014).
Like-named read-outs stand apart in the source and are kept apart here.

Columns and labels:
[1] = tested on: Aβ42 (soluble Aβ in hippocampi); test: Aβ42 in hippocampi of mice after oral administration (Aβ ELISA); assay type: in vivo; conditions: C57BL/6J mice, 10 mg/kg orally, hippocampi isolated 3 hours after administration, soluble Aβ42 by two-site sandwich ELISA; for inhibition at 10 mg/kg: Mus musculus, po, 3 h, read-out: Aβ42 production inhibitory activity (% inhibition)
Procedure: C57BL/6J mice (7-10 weeks old) were purchased from CLEA Japan Inc. Mice were housed in groups and kept on a 12 h-light; 12 h-dark schedule. All mice were given ad libitum access to food and water.
Each test compound was reconstituted in solubilization buffer ([DMSO (Wako)]: [10% Cremophor (Nakarai)+30% polyethylene glycol 400 (Wako)+60% 2 mol/L Citrate buffer (Wako)]=1:9) and orally administrated at 10 mg/kg.
Hippocampi was isolated from animals, 3 hours after test compounds were orally administrated. Hippocampi were homogenized in ice-cold Tris-extraction buffer (50 mmol/L Tris-HCl, pH 7.2, 200 mmol/L sodium chloride, 2% protease-free bovine serum albumin, and 0.01% sodium merthiolate) containing protease inhibitor cocktails (Roche, Switzerland). After centrifugation at 15,000 rpm for 15 minutes, the supernatants were subjected to two-site sandwich ELISA to measure amount of soluble Aβ. Aβ42 was quantitated by two-site sandwich ELISA using BNT77, which recognizes Aβ11-28, as a capture antibody and BC05-HRP as a detector antibody, respectively.

[2] = tested on: Aβ42 production in primary nerve cells; test: Measurement of amyloid β production inhibition rate using primary nerve cell (Aβ42 sandwich ELISA); assay type: cell-based; conditions: primary nerve cells from cerebral cortex of SD rat fetus, cultured 3 days with compound, culture supernatant, sandwich ELISA for Aβ42, read-out: Aβ42 production inhibitory activity IC50
Procedure: Measurement of Amyloid β Production Inhibition Rate Using Primary Nerve Cell
The primary nerve cells were collected from the cerebral cortex of rat fetus (CLEA Japan, Inc.: SD rat, fetal life 17 days of age), and suspended in a neurobasal medium containing B27 supplement, L-glutamine, penicillin-streptomycin (manufactured by Invitrogen) at 500,000 cells/mL. Then, the suspension was seeded in poly L-lysine-coated 96 well plate (manufactured by SUMITOMO BAKELITE) by 100 μL, and cultured at 37° C., 5% CO2 for 7 days. The medium was completely removed, and a new neurobasal medium was added at 75 μL/well. Thereto was added (75 μL/well) a neurobasal medium supplemented with a 2-fold measurement concentration of an evaluation target compound, and the mixture was cultured for 3 days. The culture supernatant was collected from each well, diluted as appropriate, applied to sandwich ELISA between BNT77 antibody-BA27 antibody (for Aβ40) and sandwich ELISA between BNT77 antibody-3005 antibody (for Aβ42), and the amounts of Aβ40 and Aβ42 were measured.
The amyloid β production inhibition rate (%) of the compound was calculated by the following formula. (1−(amyloid β production amount with addition of compound)/(amyloid β production amount without addition of compound))×100
The amyloid β production 50% inhibitory rate (IC50 value) was calculated using the statistical analysis software (SAS Preclinical Package) as the concentration of the compound showing 50% inhibition when the amyloid β production amount without addition of the compound is 100%. In addition, a new neurobasal medium was added (75 μL/well) to the cells after collection of the culture supernatant, and the cells were left standing for about 30 min to reach room temperature. Cell-Titer Glo Luminescent Cell Viability Assay (manufactured by Promega) was added at 75 μL/well, and the plate was shaken for 2 min and reacted for about 10 min.

COc1nc(-c2nnc3n2CCCC3(Oc2cc(F)c(F)c(F)c2)C(C)(C)O)ccc1-n1cnc(C)c1 (centres unmarked) [Example 134, 2-{3-[6-methoxy-5-(4-methyl-1H-imidazol-1-yl)pyridin-2-yl]-8-(3,4,5-trifluorophenoxy)-5,6,7,8-tetrahydro[1,2,4]triazolo[4,3-a]pyridin-8-yl}propan-2-ol]
inhibition at 10 mg/kg [1]: 31% | IC50 ([2]; Rattus norvegicus, 72 h): 42 nM

COc1cc(-c2nnc3n2CCCC3(Oc2ccc(Cl)c(C(F)(F)F)c2)C(C)(C)O)ccc1-n1cnc(C)n1 (centres unmarked) [Example 139, 2-{8-[4-chloro-3-(trifluoromethyl)-phenoxy]-3-[3-methoxy-4-(3-methyl-1H-1,2,4-triazol-1-yl)phenyl]-5,6,7,8-tetrahydro-[1,2,4]triazolo[4,3-a]pyridin-8-yl}propan-2-ol]
inhibition at 10 mg/kg [1]: 22% | IC50 ([2]; Rattus norvegicus, 72 h): 40 nM

COc1cc(-c2nnc3n2CCCC3(Oc2cc(F)cc(F)c2)C(C)(C)O)ccc1-c1cnc(C)o1 (centres unmarked) [Example 141, 2-{8-(3,5-difluorophenoxy)-3-[3-methoxy-4-(2-methyl-1,3-oxazol-5-yl)phenyl]-5,6,7,8-tetrahydro[1,2,4]triazolo[4,3-a]pyridin-8-yl}propan-2-ol]
inhibition at 10 mg/kg [1]: 46% | IC50 [2]: 78 nM

COc1cc(-c2nnc3n2CCCC3(Oc2cc(F)c(F)c(F)c2)C(C)(C)O)ccc1-c1cnn(C)c1 (centres unmarked) [Example 144, 2-{3-[3-methoxy-4-(1-methyl-1H-pyrazol-4-yl)phenyl]-8-(3,4,5-trifluorophenoxy)-5,6,7,8-tetrahydro[1,2,4]triazolo[4,3-a]pyridin-8-yl}propan-2-ol]
inhibition at 10 mg/kg [1]: 31% | IC50 ([2]; Rattus norvegicus, 72 h): 214 nM

COc1nc(-c2nnc3n2CCC[C@]3(Oc2cc(F)c(F)c(F)c2)C(C)(C)O)ccc1-n1cnc(C)c1 [Example 152, 2-{(8R)-3-[6-methoxy-5-(4-methyl-1H-imidazol-1-yl)pyridin-2-yl]-8-(3,4,5-trifluorophenoxy)-5,6,7,8-tetrahydro[1,2,4]triazolo[4,3-a]pyridin-8-yl}propan-2-ol]
inhibition at 10 mg/kg [1]: 57% | IC50 ([2]; Rattus norvegicus, 72 h): 49 nM

COc1cc(-c2nnc3n2CCCC3(Oc2cc(F)cc(F)c2)C(C)(C)O)ccc1-c1cnc(C)o1 (centres unmarked) [Example 155, 2-{8-(3,5-difluorophenoxy)-3-[3-methoxy-4-(2-methyl-1,3-oxazol-5-yl)phenyl]-5,6,7,8-tetrahydro[1,2,4]triazolo[4,3-a]pyridin-8-yl}propan-2-ol]
Aβ42 production inhibitory activity (% inhibition) ([1]; 10 mg/kg): 56% | IC50 [2]: 28 nM

COc1nc(-c2nnc3n2CCCC3(Oc2ccc(F)c(C(F)(F)F)c2)C(C)(C)O)ccc1-n1cnc(C)c1 (centres unmarked) [Example 157, 2-{8-[4-fluoro-3-(trifluoromethyl)phenoxy]-3-[6-methoxy-5-(4-methyl-1H-imidazol-1-yl)pyridin-2-yl]-5,6,7,8-tetrahydro[1,2,4]triazolo[4,3-a]pyridin-8-yl}propan-2-ol]
inhibition at 10 mg/kg [1]: 61% | IC50 [2]: 6 nM

COc1cc(-c2nnc3n2CCCC3(Oc2cc(F)c(F)c(F)c2)C(C)(C)O)c(F)cc1-c1cnc(C)o1 (centres unmarked) [Example 162, 2-{3-[2-fluoro-5-methoxy-4-(2-methyl-1,3-oxazol-5-yl)phenyl]-8-(3,4,5-trifluorophenoxy)-5,6,7,8-tetrahydro[1,2,4]triazolo[4,3-a]pyridin-8-yl}propan-2-ol]
inhibition at 10 mg/kg [1]: 26% | IC50 ([2]; Rattus norvegicus, 72 h): 86 nM

COc1nc(-c2nnc3n2CCCC3(Oc2cc(F)c(F)c(F)c2)C(C)(C)O)ccc1-c1cnc(C)o1 (centres unmarked) [Example 172, 2-{3-[6-methoxy-5-(2-methyl-1,3-oxazol-5-yl)pyridin-2-yl]-8-(3,4,5-trifluorophenoxy)-5,6,7,8-tetrahydro[1,2,4]triazolo[4,3-a]pyridin-8-yl}propan-2-ol]
inhibition at 10 mg/kg [1]: 35% | IC50 ([2]; Rattus norvegicus, 72 h): 47 nM

COc1cc(-c2nnn3c2CCCC3(Oc2cc(F)c(F)c(F)c2)C(C)(C)O)ccc1-c1cnc(C)o1 (centres unmarked) [Example 186, 2-{3-[3-methoxy-4-(2-methyl-1,3-oxazol-5-yl)phenyl]-7-(3,4,5-trifluorophenoxy)-4,5,6,7-tetrahydro[1,2,3]triazolo[1,5-a]pyridin-7-yl}propan-2-ol]
inhibition at 10 mg/kg [1]: 22% | IC50 [2]: 28 nM
